From patent US7763287B2, “Extract of Cercis chinensis having anti-oxidant activity and anti-aging activity, and cosmetical composition containing the extract for anti-oxidation, skin-aging protection and wrinkle improvement” (Hankook Pharm. Co., Inc., priority 2002, dated 2010) come the findings set out here.

Assay [1] deals with back skin of SKH-1 hairless mouse. The assay can be described thus: Protection of skin tissues from UVB irradiation in hairless mice. In kind it is in vivo. As for the experimental part:
5-6 week old female hairless mice (SKH-hr 1) were raised for 14 days at 24±2° C. with 50±10% relative humidity and 12 hour day/night cycle. 30-60 minutes before the experiment, a sample was hyperdermically injected on 5 spots of the mice and the backs of the mice were irradiated by UVB. 5 mice per each group were put in a cage (20×15×5 cm) and UVB irradiation was performed using a UV lamp (HP-15M, 280-400 nm, max. 312 nm; Atto Co., Japan) at 15 cm distance by 15 kJ/m^2. After the completion of UV irradiation for 24 hours, back skin was cut and stored at −70° C. until peroxidation was measured.
UVB irradiation causes serious lipid peroxidation in skin tissues, so measurement of the peroxided lipid content might lead to the measurement of skin damages. Particularly, UVB was irradiated on the back skin of SKH-1 hairless mouse. 48 hours later, the back skin tissues were cut to measure lipid peroxidation by thiobarbituric acid (TBA) method. The back skin of the mouse was put in a 10×50 mM K-P buffer solution for homogenation.
Hydrogen peroxidation was also investigated. The frozen back skin section was put in 0.1 M Tris-HCl buffer solution (pH 7.5) containing 1 mg/ml of glucose and 1 mg/ml diaminobenzidine (DAB), which was cultured at 37° C. for 5-6 hours. After being washed with distilled water, the solution was stained with 2% methyl green for 60 minutes. Nucleus stained blue and DAB peroxidase (brown) were observed under a microscope.

Assay [2] can be described thus: DPPH radical scavenging activity. In kind it is biochemical. Conditions: for DPPH radical scavenging activity IC50: Table 3. As to the method: In order to extract an effective ingredient having an anti-oxidant activity from Cercis chinensis, an experiment was performed following the procedure represented in a schematic diagram of FIG. 1. Particularly, 1 kg of leaves and stems of Cercis chinensis, dried in shadow, were grinded to powder using a pulverizer, which was extracted by ethanol (EtOH) at room temperature twice at intervals of two weeks. For the extraction, ethanol solutions were prepared by adding ethanol gradually, 10% at a time, from 0% to 100%. The prepared ethanol solutions were used for the extraction. […] But, it looses absorbance when being scavenged. Based on that point, an anti-oxidant activity can be measured using DPPH. […] Then, each solution was distributed into a 96 well plate by 10 μl each, into which 190 μl of DPPH(Sigma, St. Louis, Mo, USA) solution whose ethanol concentration was 2×10^−4 M/ml was added. The plate was just left at room temperature for 30 minutes. Finally, OD517 was measured at 517 nm. For a control, DMSO was added instead of the sample, and changes of optical density were investigated. […] DDPH Radical Scavenging Activity (%)=(Acontrol−Asample)/(Acontrol)×100 <Mathematica Formula 1>
Acontrol: Optical density of control group (sample was not added),
Asample: Optical density of experimental group (sample was added).
In order to identify a fraction having an anti oxidant activity among hexane Fr, EtOAc Fr and BuOH Fr obtained above, a DPPH radical scavenging activity was measured using each extract of each fraction following the method used above. At this time, vitamin E, known to have high DPPH radical scavenging activity, was used as a comparing group.
At this time, BHA (tert-butyl-4 hydroxyanisole) and α-tocopherol, synthetic anti-oxidant agents, were used as positive controls.
For orientation: The DPPH test is a chemical assay of radical scavenging.

Assay [3] in a line: Hydroxyl radical scavenging activity (deoxyribose/TBA, method of Halliwell). Type of assay: biochemical. Conditions: for Hydroxyl radical scavenging activity (%): 10 μg of sample, total volume 1 ml. As to the method: Hydroxyl radical (HO.) is generated by the reaction of a metal ion or a superoxide radical. Owing to its strong reactivity, hydroxyl radical causes oxidative damages to DNA, protein and lipid in vivo. Nitric oxide (NO.) is reacted with a superoxide radical to generate a peroxy nitrite (ONOO—), also having strong reactivity. […] Particularly, each compound was mixed with 10 μg of a sample dissolved in DMSO, phosphate buffer (20 mM, pH 7.4) 5.6 mM deoxyribose, 0.1 mM FeCl3, 1 mM H2O2 and 0.1 mM ascorbic acid, making total volume 1 ml, which was then reacted at 37° C. for 60 minutes. 250 μl of 20% TCA and 250 μl of 1% TBA solution (dissolved in 50 mM NaOH) were added to the reaction solution, followed by thermal reaction at 95° C. for 5 minutes. After completing the reaction, OD532 was measured. Hydroxyl radical scavenging activity was calculated by the below
<Mathematical Formula 3>. BHA and α-tocopherol were used for a positive control. Hydroxyl Radical Scavenging Activity (%)=(Acontrol−Asample)/(Acontrol−Ablank)×100 <Mathematical Formula 3>
Acontrol: Optical density of control group well (sample was not added),
Asample: Optical density of experimental group well (sample was added),
Ablank: Optical density of well not added with sample, TCA and TBA

The nature of assay [4]: Nitric oxide scavenging activity. Also noted: Nitric oxide scavenging activity (%): concentration or dose not given beside the values. Type of assay: biochemical.
Assay [5] can be described thus: Superoxide radical scavenging activity (xanthine/xanthine oxidase, NBT). In kind it is biochemical. Conditions: Table 6. As for the experimental part:
Superoxide radical (O^2−) itself has a little reactivity, but is easily changed into H2O2 that generates hydroxyl radical having strong reactivity or is reacted with nitric oxide (NO.) to generate peroxy nitrite (ONOO^−) having strong reactivity, too. Thus, it might be a reason for oxidation of SH-group, nitration of protein tyrosine, lipid peroxidation and DNA damage. […] Basically, measurement of superoxide radical scavenging activity was performed by investigating the activity of superoxide dismutase (SOD), an enzyme scavenging superoxide by dismutation of the same. In the present invention, an activity of a sample to inhibit superoxide production by the enzyme reaction of xanthine/xanthine oxidase and its another activity to inhibit reaction (NBT+20^2−→NBTH2+2O2) generating formazan by reduction of nitro blue tetrazolium (referred as ‘NBT’ hereinafter) were measured. Particularly, wells of a 96-well plate were supplemented with 50 μl of 4 mM xanthine (Sigma), 50 μl of […] NBT (Sigma), 50 μl of 50 mM phosphate buffer (pH 7.8, 1 mM EDTA) and 10 μl of each sample, into which 40 μl of xanthine oxidase was added to induce a reaction. After the reaction was completed, each reaction solution was collected as scheduled, and OD550 was measured with an ELISA reader. […] Superoxide Radical Scavenging Activity (%)=(Acontrol−Asample)/(Acontrol−Ablank)×100 <Mathematical Formula 4> […]

In assay [6] the test system is HEK-N/F cells. The assay can be described thus: Protection of cells from oxidative damage induced by t-butylhydroperoxide. Type of assay: cell-based, human. Conditions: 1.5 mM t-butylhydroperoxide 3 hours; for TBARS (pmol/mg protein): compound 50.0 µg/ml. As for the experimental part:
t-butylhydroperoxide is metabolized into a free radical intermediate as it comes in a cell, so that it causes lipid peroxidation, resulting in cell damage. This phenomenon is similar to that caused by oxidataive stress accumulated in cells and tissues. […] HEK-N/F, an epidermal cell line of a newborn baby, was treated with 1.5 mM of t-butylhydroxyperoxide for 3 hours.

Assay [7] concerns rat brain homogenates. The assay can be described thus: Lipid peroxidation inhibitory activity (Fe2+/ascorbic acid, TBA method). Particulars: Table 4.

For the compound `O=C1O[C@H]([C@@H](O)CO)C([O-])=C1OP(=O)([O-])[O-].O=C1O[C@H]([C@@H](O)CO)C([O-])=C1OP(=O)([O-])[O-].[Mg+2].[Mg+2].[Mg+2]` [MAP, magnesium-L-ascorbyl-2-phosphate, reference compound], the “TBARS (nmol/mg protein)” value in assay [1] (treating amount 30 mg/kg + UVB irradiation) was determined as 0.28 ± 0.06 nmol/mg protein; in assay [1] (treating amount 50 mg/kg + UVB irradiation), 0.16 ± 0.05 nmol/mg protein.
In the case of `CCOC(=O)c1cc(O)c(O)c(O)c1` [Chemical Formula 8, ethyl gallate], the “DPPH radical scavenging activity IC50” value in assay [2] came out at 7.0 ± 1.0 µg/mL. In addition, in assay [3], the “Hydroxyl radical scavenging activity (in words)” value is reported as “remarkably higher hydroxyl radical scavenging activities” and the “Hydroxyl radical scavenging activity (%)” value came to 44.0%. Moreover, the “Nitric oxide scavenging activity (%)” value in assay [4] was found to be 33.4 ± 2.1%. The “Superoxide radical scavenging activity IC50” value in assay [5] worked out at 15.8 ± 1.6 µg/mL. Also, in assay [6], the “Cell survival rate (%)” value turned out to be 43.1±4.1% and the “TBARS (pmol/mg protein)” value is 1115.6 ± 96.2 pmol/mg protein. Further, in assay [7], the “Lipid Peroxidation Inhibitory Activity IC50” value turned out to be 7.01 ± 0.62 µg/mL.
As to `Oc1cc(O)c2c(c1)O[C@H](c1ccc(O)c(O)c1)[C@@H](O)C2` [Chemical Formula 16, (+)-catechin], in assay [2], the “DPPH radical scavenging activity (in words)” value is “strong radical scavenging activity” and the “DPPH radical scavenging activity IC50” value is 15.6 ± 0.8 µg/mL. Further, the “Hydroxyl radical scavenging activity (%)” value in assay [3] was determined as 12.7%. Also, in assay [4], the “Nitric oxide scavenging activity (%)” value worked out at 16.9 ± 1.1% and the “Nitric oxide scavenging activity (in words)” value is reported as “comparatively high nitric oxide scavenging activity”. Besides, the “Superoxide radical scavenging activity IC50” value in assay [5] amounted to 16.5 ± 2.0 µg/mL. In addition, in assay [6], the “Cell survival rate (%)” value was 24.5 ± 1.9% and the “TBARS (pmol/mg protein)” value was 1912.4 ± 112.0 pmol/mg protein. The “Lipid Peroxidation Inhibitory Activity IC50” value in assay [7] amounted to 4.71 ± 0.26 µg/mL.
In the case of `COc1cc(C2c3c(cc(OC)c(O)c3OC)CC(CO)C2CO[C@@H]2OC[C@@H](O)[C@H](O)[C@H]2O)cc(OC)c1O` (single isomer, unassigned; (-)) [Chemical Formula 19, (−)-lyoniresinol 3a-O-β-D-xylopyranoside], the “DPPH radical scavenging activity IC50” value in assay [2] stood at 45.7 ± 4.0 µg/mL. For the same compound, the “Hydroxyl radical scavenging activity (%)” value in assay [3] was 7.3%. Moreover, in assay [4], the “Nitric oxide scavenging activity (%)” value came out at 0.8 ± 0.6%. For the same compound, in assay [5], the “Superoxide radical scavenging activity IC50” value is more than 100 µg/mL. In assay [6], the “Cell survival rate (%)” value worked out at 13.5 ± 2.0% and the “TBARS (pmol/mg protein)” value worked out at 5981.1 ± 412.6 pmol/mg protein. Further, in assay [7], the “Lipid Peroxidation Inhibitory Activity IC50” value is 37.42 ± 2.06 µg/mL.
As for `COc1cc(-c2oc3cc(O)cc(O)c3c(=O)c2O[C@@H]2O[C@H](CO[C@@H]3O[C@@H](C)[C@H](O)[C@@H](O)[C@H]3O)[C@@H](O)[C@H](O)[C@H]2O)cc(OC)c1O` [Chemical Formula 14, syringetin-3-O-rutinoside], the “DPPH radical scavenging activity IC50” value in assay [2] is 35.1 ± 1.5 µg/mL. In addition, in assay [3], the “Hydroxyl radical scavenging activity (%)” value stood at 10.2%. Further, in assay [4], the “Nitric oxide scavenging activity (%)” value is 6.0 ± 0.8%. Besides, the “Superoxide radical scavenging activity IC50” value in assay [5] came to 45.2 ± 2.2 µg/mL. In assay [6], the “Cell survival rate (%)” value was found to be 20.0 ± 2.6% and the “TBARS (pmol/mg protein)” value is 2928.1 ± 209.9 pmol/mg protein. Further, the “Lipid Peroxidation Inhibitory Activity IC50” value in assay [7] turned out to be 19.0 ± 1.52 µg/mL.
As for `CC1OC(Oc2c(-c3cc(O)c(O)c(O)c3)oc3cc(O)cc(O)c3c2=O)C(OC(=O)c2cc(O)c(O)c(O)c2)C(O)C1O` [Chemical Formula 13, myricetin-3-O-(2″-O-galloyl)-α-L-rhamnopyranoside], the “DPPH radical scavenging activity IC50” value in assay [2] turned out to be 8.6 ± 0.7 µg/mL. Besides, in assay [3], the “Hydroxyl radical scavenging activity (in words)” value was “remarkably higher hydroxyl radical scavenging activities” and the “Hydroxyl radical scavenging activity (%)” value is 45.4%. Further, in assay [4], the “Nitric oxide scavenging activity (%)” value was found to be 23.0 ± 0.6%. Moreover, the “Superoxide radical scavenging activity IC50” value in assay [5] came to 13.2 ± 2.5 µg/mL. Moreover, in assay [6], the “Cell survival rate (%)” value is reported as 45.1 ± 3.6% and the “TBARS (pmol/mg protein)” value came out at 1019.8 ± 154.0 pmol/mg protein. The “Lipid Peroxidation Inhibitory Activity IC50” value in assay [7] is 4.73 ± 0.41 µg/mL.
For “(−)-epicatechin-3-O-gallate [Chemical Formula 17]”, the “DPPH radical scavenging activity IC50” value in assay [2] was determined as 6.8 ± 0.5 µg/mL. Further, in assay [3], the “Hydroxyl radical scavenging activity (in words)” value is “remarkably higher hydroxyl radical scavenging activities” and the “Hydroxyl radical scavenging activity (%)” value was 39.9%. Further, in assay [4], the “Nitric oxide scavenging activity (%)” value stood at 25.4 ± 1.2% and the “Nitric oxide scavenging activity (in words)” value is “comparatively high nitric oxide scavenging activity”. In addition, the “Superoxide radical scavenging activity IC50” value in assay [5] was 11.9 ± 2.1 µg/mL. Moreover, in assay [6], the “Cell survival rate (%)” value was 49.4 ± 6.4% and the “TBARS (pmol/mg protein)” value was 1007.3 ± 95.2 pmol/mg protein. In addition, the “Lipid Peroxidation Inhibitory Activity IC50” value in assay [7] was 2.90 ± 0.06 µg/mL.
